Key:
[1] = test system: peritoneal macrophages from LdIr−/− mice; experiment: OxLDL uptake by peritoneal macrophages (FITC-oxLDL, flow cytometry); type: cell-based; conditions: macrophages from mice treated with 3-HAA 200 mg/Kg i.p. for 8 weeks vs PBS; 20 μg/ml FITC-oxLDL, 2 h, 37° C.; P<0.01
Method: Peritoneal macrophages from LdIr−/− mice injected with 3-HAA (200 mg/Kg) or PBS (8 weeks treatment) were incubated with FITC-oxLDL at a concentration of 20 μg protein/ml for 2 h at 37° C. The uptake was quantified by flow cytometry. (A) Values given are MFI of FITC-oxLDL, means±SE of triplicate wells for each mouse (n=5 and 6, for 3-HAA or PBS respectively).
LDL was labeled using a modification of a previously described method^32. Briefly, LDL (1.5-2 mg/ml) was dialyzed overnight against 500 mM NaHCO3 pH 9.5. Next, 50 μg of FITC (Sigma-Aldrich, St. Louis, Mo., USA), dissolved in DMSO (1 mg/ml), was added for each mg of protein in LDL, and incubated at room temperature for 2 hours. After incubation conjugates were separated from the free fluorochrome by gel filtration using a PD10 column (GE Healthcare, Uppsala, Sweden) and PBS for elution. FITC conjugation was evaluated by absorption spectroscopy against a FITC standard curve at 495 nm. Protein concentration was determined by Bradford assay (Biorad, Calif., USA). […] The extent of oxidation was evaluated by the TBARS assay, as described^33.
Twenty four hours after the last injection of 3-HAA or PBS, peritoneal macrophages were isolated from LdIr−/− mice by peritoneal lavage with PBS. […] The cells were analyzed on a CyAn™ ADP flow cytometer (Dako, Glostrup, Denmark).

LdIr−/− mice [2] = experiment: Plasma lipid analysis (total cholesterol, triglycerides; enzymatic colorimetric kits); type: in vivo; conditions: 3-HAA 200 mg/kg i.p., 8 weeks, high-fat diet, vs PBS; P<0.01
Method: It was hypothesized that induction of protective immunity, with effects on metabolism and inflammation, could be achieved by injecting 3-HAA (200 mg/kg) intraperitoneally, 3 times per week, for 8 weeks. Twelve weeks old LdIr−/− mice were treated with 3-HAA, or PBS as control. The mice were fed a high-fat diet starting 2 days after the first injection until sacrifice, 8 weeks later with CO2.
Plasma cholesterol and triglycerides were measured using enzymatic colorimetric kits according to the manufacturer's protocol. Dissected aortic arches were stained with Sudan IV en face and % lesion area of total vessel area was calculated. Additionally, the effect of 3-HAA on the uptake oxLDL was evaluated in cultures of peritoneal macrophages from 3-HAA or PBS treated mice.
(§1) LdIr−/− mice were bred and housed in the Animal Experimentation Unit at the Center for Molecular Medicine, Karolinska University Hospital. The mice (n=7-10 per group) received 3 intra-peritoneal injections of PBS (200 μl) or 3-HAA (200 mg/Kg in PBS) per week for 6 weeks and 1 injection per week in the following two weeks (total 24 injections) and were sacrificed with CO2. […]
Plasma cholesterol and triglycerides were measured using enzymatic colorimetric kits (Randox Lab. Ltd. Crumin, UK) according to the manufacturer's protocol.

LdIr−/− mice [3] = experiment: Lipoprotein profiles of plasma (size fractionation, cholesterol per fraction); type: in vivo; conditions: 3-HAA 200 mg/kg i.p., 8 weeks
Method: (§2) LdIr−/− mice were bred and housed in the Animal Experimentation Unit at the Center for Molecular Medicine, Karolinska University Hospital. The mice (n=7-10 per group) received 3 intra-peritoneal injections of PBS (200 μl) or 3-HAA (200 mg/Kg in PBS) per week for 6 weeks and 1 injection per week in the following two weeks (total 24 injections) and were sacrificed with CO2. The mice were fed a high-fat diet (corn starch, cocoa butter, casein, glucose, sucrose, cellulose flour, minerals and vitamins; 17.2% protein, 21% fat (62.9% saturated, 33.9 unsaturated and 3.4% polyunsaturated), 0.15% cholesterol, 43% carbohydrates, 10% H2O and 3.9% cellulose fibers; R638 Lantmännen, Sweden) starting 2 days after the start of treatment.
Plasma cholesterol lipoprotein profiles were determined using a modification of the method of Okazaki et al^34. Briefly, plasma samples (50 μl) from mice treated with 3-HAA or PBS were fractionated using an HR10/30 Superose 6 column (GE Healthcare, Uppsala, Sweden) and a Discovery BIO GFC-500 as pre-column (5 cm×7.8 i.d.; Supelco®, Sigma-Aldrich, PA, USA) coupled to Prominence UFLC system (Shimadzu, Kyoto, Japan) and equilibrated with Tris-buffered saline, pH 7.4. Fractions of 200 μl were collected using Foxy Jr® fraction collector (Teledyne Isco Inc, NE, USA) and total cholesterol was determined in each fraction using enzymatic colorimetric kit (Randox Lab. Ltd. Crumin, UK).

LdIr−/− mice [4] = experiment: Lesion analysis, en face Sudan IV staining of the aortic arch; type: in vivo; conditions: 3-HAA 200 mg/kg i.p., 8 weeks on high fat diet, vs PBS; P<0.001
Method: Twelve weeks old LdIr−/− mice were treated with 3-HAA or PBS as control. The mice were sacrificed after 8 weeks on a Western diet. Dissected arches were stained with Sudan IV en face and % lesion area of total vessel area was calculated using Image J image analysis software (NIH, Bethesda, Md.). The additive area of all the plaques in a given aortic arch was calculated as a percent of the total surface area of the arch. (n=7 and 10, for 3-HAA or PBS respectively). ***) P<0.001.
as §1
En face lipid accumulation was determined in the aortic arch from 3-HAA and PBS treated mice using Sudan IV staining. […] The additive area of all the plaques in a given aortic arch was calculated as a percent of the total surface area of the arch (not including branching vessels). Quantitation of plaques was performed using Image J software (NIH, Bethesda, USA).

[5] = Body weight of treated mice; type: in vivo; conditions: 3-HAA 200 mg/kg i.p., 8 weeks; data not shown
Method: as §2

Nc1c(O)cccc1C(=O)O [3-HAA, 2-Amino-3-hydroxybenzoic acid]
reduced uptake of FITC-oxLDL [1]: approx 79% | reduction in plasma total cholesterol (LdIr−/− mice [2]): approx 50% | reduction in plasma triglycerides (LdIr−/− mice [2]): approx 72% | HDL levels (LdIr−/− mice [3]; high-fat diet, vs PBS): effectively raised HDL levels | LDL/HDL ratio (LdIr−/− mice [3]; mean±SEM, PBS group 2.3±0.24, P<0.05): 1.4±0.16 | VLDL/HDL ratio (LdIr−/− mice [3]; mean±SEM, PBS group 4.0±0.55, P<0.01): 1.4±0.31 | reduction in atherosclerotic lesion area in en face preparations of the aortic arch (LdIr−/− mice [4]): approximately 90% | effect on body weight [5]: no effect on body weight

— patent US20140296567A1, “3-HYDROXYANTHRANILIC ACID (3-HAA) THERAPY FOR PREVENTION AND TREATMENT OF HYPERLIPIDEMIA AND ITS CARDIOVASULAR COMPLICATIONS” (priority 2011, published 2014)
